The record followed here is PubChem BioAssay (NCI).

The TGI is the concentration giving total growth inhibition.

Some test systems named below: NCI-H460 lung; ACHN renal; MCF7 breast; IGROV1 ovarian; MALME-3M melanoma; OVCAR-8 ovarian; NCI-H522 lung; HS 578T breast; HT29 colon; SR leukemia.
What all share (test): DTP human tumour cell line panel, 48 h

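Each compound was tested at five concentrations against cells in 96-well plates for 48 hours. TGI denotes the concentration required for complete inhibition of growth.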

Regarding `N#Cc1nc(C(F)(F)F)oc1N`, the TGI in the experiment on NCI-H460 lung, with ACHN renal, with MCF7 breast, in the experiment on IGROV1 ovarian, with MALME-3M melanoma and in the experiment on OVCAR-8 ovarian was more than 100 µM throughout. Also, the TGI in the experiment with NCI-H522 lung, in the experiment with HS 578T breast, in the experiment with HT29 colon and in the experiment on SR leukemia was more than 100 µM throughout.
In the case of `CCOC(=O)CN=C1Nc2ccccc2C(=O)N2CSCC12` (stereo not given), the TGI in the experiment on NCI-H460 lung, in the experiment on ACHN renal, with MCF7 breast, in the experiment with IGROV1 ovarian, with MALME-3M melanoma and in the experiment on OVCAR-8 ovarian was more than 100 µM throughout. Further, the total growth inhibition concentration (TGI) in the experiment on NCI-H522 lung, in the experiment on HS 578T breast, with HT29 colon and with SR leukemia was more than 100 µM throughout.
For the compound `Nc1nc2cc(CNc3ccc(C(=O)O)cc3)ccc2nc1-c1ccccc1`, the TGI in the experiment on NCI-H460 lung, with ACHN renal, with MCF7 breast, in the experiment on IGROV1 ovarian, in the experiment on MALME-3M melanoma and in the experiment on OVCAR-8 ovarian was more than 100 µM each time. In addition, the TGI in the experiment with NCI-H522 lung, with HS 578T breast, in the experiment on HT29 colon and with SR leukemia was more than 100 µM each time.
On to `O=C(O)CS(=O)c1ccc2c3c(cccc13)C(=O)c1ccccc1-2` (stereo not given), for which the concentration for total growth inhibition (TGI) in the experiment on NCI-H460 lung, with ACHN renal, with MCF7 breast, in the experiment on IGROV1 ovarian, in the experiment with MALME-3M melanoma and with OVCAR-8 ovarian was more than 100 µM throughout. The TGI in the experiment with NCI-H522 lung, with HS 578T breast, in the experiment with HT29 colon and in the experiment with SR leukemia was more than 100 µM each time.
As for `Cc1ccc2ccc(=O)oc2c1`, the concentration for total growth inhibition (TGI) in the experiment on NCI-H460 lung, with ACHN renal, in the experiment on MCF7 breast, with IGROV1 ovarian, in the experiment on MALME-3M melanoma and with OVCAR-8 ovarian was more than 100 µM throughout. In addition, the concentration for total growth inhibition (TGI) in the experiment on NCI-H522 lung, with HS 578T breast, with HT29 colon and in the experiment on SR leukemia was more than 100 µM throughout.
Take `CN(C)c1ccc(/C=N/n2c(-c3ccccc3)nc3ccccc3c2=O)cc1`: the TGI in the experiment with NCI-H460 lung, in the experiment on ACHN renal, in the experiment on MCF7 breast, in the experiment with IGROV1 ovarian, in the experiment with MALME-3M melanoma and in the experiment with OVCAR-8 ovarian was more than 100 µM in each case. Moreover, the concentration for total growth inhibition (TGI) with NCI-H522 lung is more than 100 µM; with HS 578T breast it was 92.4 µM; with HT29 colon, more than 100 µM; with SR leukemia it was 83.6 µM.
In the case of `CC(/C=N/N(C)C1=NCCCCN1)=N/N(C)C1=NCCCCN1`, the concentration for total growth inhibition (TGI) in the experiment with NCI-H460 lung, in the experiment on ACHN renal, in the experiment on MCF7 breast, in the experiment with IGROV1 ovarian, in the experiment on MALME-3M melanoma and with OVCAR-8 ovarian was more than 100 µM throughout. The concentration for total growth inhibition (TGI) in the experiment with NCI-H522 lung, with HS 578T breast, with HT29 colon and in the experiment on SR leukemia was more than 100 µM throughout.
Take `NC(CCl)=NC1CN2CCC1CC2` (stereo not given): the concentration for total growth inhibition (TGI) with NCI-H460 lung, with ACHN renal, in the experiment with MCF7 breast, with IGROV1 ovarian, in the experiment with MALME-3M melanoma and in the experiment with OVCAR-8 ovarian was more than 100 µM each time. The TGI is 58 µM in the experiment with NCI-H522 lung, more than 100 µM in the experiment on HS 578T breast, more than 100 µM with HT29 colon and more than 100 µM in the experiment with SR leukemia.
In the case of `Cc1c(C#N)c2nnn(-c3ccc([N+](=O)[O-])cc3)c(=O)n2c1-c1ccccc1`, the TGI with NCI-H460 lung worked out at 26.5 µM; in the experiment with ACHN renal, 16.4 µM; in the experiment on MCF7 breast it was 19.6 µM; with IGROV1 ovarian it was 33.6 µM; in the experiment with MALME-3M melanoma, 30.7 µM; in the experiment on OVCAR-8 ovarian it was 25.7 µM. In addition, the total growth inhibition concentration (TGI) with NCI-H522 lung was 13.9 µM; with HS 578T breast it was more than 100 µM; in the experiment on HT29 colon, 23.7 µM; with SR leukemia, 46.3 µM.
For `Cc1ccc(C(=O)Cc2nc3ncccc3[nH]c2=O)cc1`, the concentration for total growth inhibition (TGI) was more than 100 µM in the experiment on NCI-H460 lung; 69.3 µM in the experiment on ACHN renal; more than 100 µM in the experiment on MCF7 breast; more than 100 µM in the experiment on IGROV1 ovarian; 72.3 µM in the experiment on MALME-3M melanoma; 53.1 µM in the experiment on OVCAR-8 ovarian. Also, the concentration for total growth inhibition (TGI) in the experiment on NCI-H522 lung is more than 100 µM; in the experiment on HS 578T breast it was 71.3 µM; in the experiment on HT29 colon, more than 100 µM; with SR leukemia it was more than 100 µM.
On to `COc1cc(CCNC2=CC(=O)c3cccnc3C2=O)ccc1O`, for which the TGI in the experiment on NCI-H460 lung stood at 2.65 µM; in the experiment on ACHN renal, 5.61 µM; in the experiment with MCF7 breast, 1.3 µM; with IGROV1 ovarian, 4.3 µM; in the experiment with MALME-3M melanoma it was 2.32 µM; in the experiment with OVCAR-8 ovarian it was 12 µM. The concentration for total growth inhibition (TGI) in the experiment on NCI-H522 lung was determined as 2.26 µM; in the experiment on HS 578T breast, 3.56 µM; in the experiment with HT29 colon, 4.38 µM; with SR leukemia it was 12.2 µM.
